The results in this text go back to patent publication US9045505B2, “Nitric oxide donors” (University of Otago, priority 2006, dated 2015).

One assay has as its target T1, cytochrome c oxidase (Rattus norvegicus, UniProt P05503).
T1 construct: from tissue; host or cells: rat liver mitochondria
The experiment in a line: NO generation and respiration in isolated liver mitochondria (NO and O2 electrodes). In kind it is biochemical. To be noted: succinate. As for the experimental part: FIG. 9 is a series of traces and graphs showing membrane potential-dependent MitoSNAP mitochondrial uptake and NO^• generation. (a-d) Liver mitochondria were incubated in KCl medium supplemented with rotenone in a stirred 3 ml chamber and electrodes were used to measure the concentrations of O2 and NO^• simultaneously. Where indicated succinate (10 mM), OxyHb (5 μM) or FCCP (500 nM) were added. For (a) and (b) 2 mg mitochondrial protein/ml and 20 μM MitoSNAP (a) or SNAP (b) were used. For (c) and (d) 0.5 mg mitochondrial protein/ml and 5 μM MitoSNAP were used. There was no effect of 5 μM MitoNAP on respiration or NO^• production. All traces are from typical experiments repeated at least twice. (e-f) Mitochondria (1 mg protein) were incubated in 1 ml KCl medium without neocuproine or DTPA, supplemented with rotenone and succinate in the absence (e) or presence (f) of FCCP (500 nM). Mitochondria were then pelleted by centrifugation (10,000×g) then aliquots of the supernatant (700 μl) were mixed with 700 μl 0.1% TFA and analyzed by RP-HPLC. The amount of MitoSNAP and MitoNAP were calculated as the percentage of their peak areas relative to the sum of both peak areas.
Nitrite, nitric oxide and S-nitrosothiol measurements. Nitrite was analyzed by the Griess assay (Molecular Probes). Nitric oxide was measured using an NO^• electrode (World Precision Instruments Ltd, UK) connected to an Apollo 4000 Free Radical Analyser. The electrode was inserted into a stirred, sealed 3 ml chamber with a Clark type O2 electrode (Rank Brothers, UK) built into its base and was thermostatted at 37° C. The NO^• electrode was calibrated by adding SNAP to argon-purged, saturated CuCl. OxyHb was prepared by reduction of bovine methemoglobin with sodium dithionite. Protein S-nitrosothiols were measured using a chemiluminescence assay in an EcoMedics CLD 88 Exhalyzer (Annex, Herts, UK) (Feelisch, M. et al. Concomitant S—, N—, and heme-nitros(yl)ation in biological tissues and fluids: implications for the fate of NO in vivo. FASEB. J. 16, 1775-85 (2002)).
Mitochondrial incubations were usually in KCl buffer (120 mM KCl, 10 mM HEPES, 1 mM EGTA, 100 μM N,N-bis(2-bis[carboxymethyl]aminoethyl) glycine (DTPA) and 10 μM neocuproine, pH 7.2) with 10 mM succinate and 4 μg/ml rotenone in the dark at 37° C., unless stated otherwise. An electrode selective for the TPP moiety of MitoSNAP and MitoNAP was made and used as described previously (Asin-Cayuela, J., Manas, A. R., James, A. M., Smith, R. A. & Murphy, M. P. Fine-tuning the hydrophobicity of a mitochondria-targeted antioxidant. FEBS Letts. 571, 9-16 (2004)). Respiration rates were measured in a Clark type O2 electrode (Rank Brothers, UK). To measure GSH and GSSG, mitochondria (1 mg protein/ml) were incubated with 0-10 μM MitoSNO1 or MitoNAP for 10 min, pelleted by centrifugation and the GSH and GSSG contents assessed by the recycling assay (Scarlett, J. L., Packer, M. A., Porteous, C. M. & Murphy, M. P. Alterations to glutathione and nicotinamide nucleotides during the mitochondrial permeability transition induced by peroxynitrite. Biochem. Pharmacol. 52, 1047-1055 (1996)). The measurement of exposed mitochondrial protein thiols is described below.
Following its accumulation within mitochondria MitoSNAP interacted with the GSH-rich matrix to release NO^• which then affected respiration by competitively inhibiting O2 consumption at cytochrome c oxidase. […] Mitochondria were incubated with the complex I inhibitor rotenone in the absence of substrate to prevent Δψ generation, and addition of 20 μM MitoSNAP produced a small amount of NO^•, presumably due to MitoSNAP diffusion into the mitochondrial matrix and reaction with GSH (FIG. 9a).
To explore further the Δψ-dependence of NO^• production by MitoSNAP, studies with decreased concentrations (5 μM) and fewer mitochondria (0.5 mg protein/ml) were undertaken (FIGS. 9c & d). […]

The test system of the next assay is complex I. In words: S-nitrosation of bovine heart mitochondrial membranes and complex I. The assay is classed as biochemical.
[1] abbreviates: 5 μM, 0.5 mg mitochondrial protein/ml.
[2] abbreviates: 20 μM, 2 mg mitochondrial protein/ml.

As for `CC(=O)NC(C(=O)NCCCCC[P+](c1ccccc1)(c1ccccc1)c1ccccc1)C(C)(C)SN=O.CS(=O)(=O)[O-]` (stereo not drawn) [MitoSNAP, [5-(2-acetylamino-3-methyl-3-nitrosothio-butyrylamino)-penty1]-triphenylphosphonium methanesulfonate], at cytochrome c oxidase (setting [1]), the “NO production by energized mitochondria” value was “dramatic increase in NO^• production” and the effect on respiration entry is recorded as “decreased respiration”. Moreover, on cytochrome c oxidase (setting [2]), the “NO production by energized mitochondria” value is recorded as “rapid increase in NO^• production” and the effect on respiration result was “respiration rate slowed”. Further, in the assay on complex I (75 μM, 5 min), the “S-nitrosation of complex I (BN-PAGE, Cy3)” value is “complex I was S-nitrosated”. In the assay with complex I (75 μM, 5 min, mean±SD, n=4), the “formation of protein SNOs” value is 4.8±0.9 nmol protein SNOB/mg protein. In addition, in the assay on complex I (1 mM GSH), the “decrease of SNO content by GSH treatment” value is listed as about 53%.
As for `CC(=O)NC(C(=O)O)C(C)(C)SN=O` (racemic) [SNAP, S-nitroso-N-acetyl-DL-penicillamine, reference compound], on cytochrome c oxidase (setting [2]), the “NO production by energized mitochondria” value is “negligible” and the effect on respiration entry is “did not affect respiration”.
